From patent US4849410A, “Pseudopterosin and synthetic derivatives thereof” (The Regents of the University of California, priority 1987, dated 1989)

Key:
[1] = tested on: Phorbol Myristate Acetate (PMA) Induced Topical Inflammation of the Mouse Ear; assay: Mouse Ear Anti-Inflammatory Assay (PMA, topical); type: in vivo; conditions: for Ear Weight Mean ± S.E.M.: PMA 1.5 ug
Procedure: a. Mouse Ear Anti-Inflammatory Assay
Test compound and phorbol myristate acetate (PMA) are topically applied simultaneously to the pinnae of the ears of mice. Three hours twenty minutes after application, mice are sacrificed, ears removed and standard sized bores taken. Edema (inflammation) is measured as the difference in weight between control and treated ears.
(§1) The vheicle or carrier for the compounds used in the inflammatory and analgesic assays was as follows; For the mouse ear inflammatory assay, the vehicle was acetone. Controls received 25 microliters of acetone. Test compounds were applied to the experimental animals in 25 microliter volumes. For the sperm motility and fertilized sea urchin egg assays, the compounds were dissolved in 10 microliters undenatured ethanol.

[2] = tested on: Intraperitoneally Administered Phenylquinone; assay: Phenylquinone Assay for Analgesia (writhing); type: in vivo, mice; conditions: for Mean No. Responses ± S.E.M.: phenylquinone 2.0 mg/kg
Procedure: d. Phenylquinone Assay for Analgesia
Test compound is injected subcutaneously into mice. After 30 minutes, phenylquinone is injected intraperitoneally to cause pain as indicated by writhing.
Test compound was administered subcutaneously in sesame oil at concentrations up to 5 mg per ml depending on the test compound dosage protocol. The highest dose was 50 mg per Kg. Control groups received sesame oil subcutaneously.

[3] = tested on: PMA induced swelling of the mouse ear; assay: Anti-Inflammatory Assay (topical administration); type: in vivo, mice
Procedure: Anti-Inflammatory (topical administration)
2 ug PMA was applied in 25 ul of acetone of the inner surface of the left ear, the right ear is treated with solvent only. […] 200 minutes after PMA treatment, the mice were killed by cervical dislocation and both ears were cut off, punched with a #4 cork borer and weighed. The swelling induced by PMA was calculated as the mean increase in the weight of the left ear minus the right ear. The pecent inhibition of edema was calculated as control-drug/control×100. […] ED50 values were estimated by the method of Litchfield and Wilcoxon.

[4] = CNS activity and toxicity in the comparative tests; conditions: during the anti-inflammatory assay
[5] = Side effects, subcutaneous administration to mice; type: in vivo
Source text: The following side effect of pseudopterosin A (Compound I) was observed.

[6] = tested on: highly metastatic subline (F10) of B16 melanoma; assay: Antiproliferative effects on tumor cells growing in tissue culture; type: cell-based; conditions: continuous exposure; read-out: concentration that inhibited proliferation by 50 percent
Procedure: Compound I was also tested for antiproliferative effects on tumor cells growing in tissue culture.

[7] = tested on: sea urchin sperm; assay: Sperm Motility Assay; type: cell-based; conditions: 16 microgram/ml (10^-5 m)
Procedure: Male sea urchins are induced to spawn by injection of 0.5M KCl into the coelomic cavity. Sperm is collected via a pasteur pipette and stored in a test tube on ice. One drop of undiluted sperm is added to 25 ml of filtered fresh seawater, then 1.0 ml volumes of this solution are immediately added to test tubes containing 10 microliter test solution. Aliquots of sperm from each tube are observed microscopically for motility at a time two minutes after addition of sperm to test solution.
as §1

[8] = Toxicity of single intraperitoneal doses; type: in vivo, female B6D2F1 mice
Procedure: The toxicity of single intraperitoneal (ip) doses of Compound I in female B6D2F1 mice were evaluated. Doses of up to 150 mg/kg produced no lethality but signs of CNS toxicity were evident at doses greater than or equal to 77 mg/kg.

[9] = tested on: M5076 reticulum cell sarcoma; assay: Activity in mice bearing ip M5076 reticulum cell sarcoma; type: in vivo, female B6D2F1 mice
Procedure: Compound I was also evaluated for activity against solid tumors as follows:
One-half ml of a 10 percent (v:v) brei of tumor cells prepared from solid B16 melanoma or M5076 reticulum cell sarcoma was implanted ip in female B6D2F1 mice which were randomized to treatment groups of 8 animals each. Treatment was initiated 24 hours after tumer inoculation and was continued daily for 10 days (cisplatin was administered q4Dx4 on Days 1, 5, 9 and 13). Mice were monitored daily for 60 days, and the median day of death was determined compared to three groups of untreated controls to provide percent increase in lifespan (ILS). ILS values of greater than or equal to 50 percent represent biologically significant antitumor effects. Cisplatin was curative in M5076 with 6/8 tumor-free survivors on Day 60 at the top dose level.

[10] = tested on: Fertilized Sea Urchin Egg; assay: Fertilized Sea Urchin Egg Inhibition of Cleavage Assay for Anti-proliferation; type: cell-based; conditions: doses as low as
Procedure: c. Fertilized Sea Urchin Egg Inhibition of Cleavage Assay for Anti-proliferation
Sea urchins are induced to spawn by injection of 0.5M KCl into the coelomic cavity. Test compound is added to a 1% slurry of eggs within 5 minutes following fertilization and incubated until the completion of the division in control slurry, 90-120 minutes. Inhibition is measured as the present of undivided cells in the slurry at the end of this incubation.
as §1

[11] = Side effects and mortality, intraperitoneal administration to mice; type: in vivo; conditions: for Mortality: on day after administration
Procedure: Doses up to 50 mg/kg administered intraperitoneally to mice have no effect. […] Mortality at 100 mg/kg=2/10 on day after administration, at 200 mg/kg=2/4 also on day after administration.

[12] = 12.5 mg/kg to 50 mg/kg subcutaneously
[13] = 100 mg/kg and above intraperitoneally

With `CC(C)=C[C@H]1C[C@H](C)[C@H]2CC[C@H](C)c3c(O[C@@H]4OC[C@@H](O)[C@H](O)[C@H]4O)c(O)c(C)c1c32` [Compound I, pseudopterosin A] the decrease in edema ([1]; 50 microgram) was 69%, the “Ear Weight Mean ± S.E.M.” value ([1]; 6.25 ug/ear) was 16.78 ± 0.91 mg and the “Ear Weight Mean ± S.E.M.” value ([1]; 12.5 ug/ear) was 14.99 ± 0.6 mg. For the same molecule, the “Ear Weight Mean ± S.E.M.” value ([1]; 25.0 ug/ear) was 13.18 ± 0.53 mg, the “Ear Weight Mean ± S.E.M.” value ([1]; 50.0 ug/ear) was 12.47 ± 0.46 mg and the “Ear Weight Mean ± S.E.M.” value ([1]; 100.0 ug/ear) was 11.70 ± 0.37 mg. For the same molecule, the “Anti-inflammatory Activity” value ([1]; summary) was “Active”, the “Mean No. Responses ± S.E.M.” value ([2]; 3.1 mg/kg) was 8.55 ± 1.38 and the “Mean No. Responses ± S.E.M.” value ([2]; 6.3 mg/kg) was 5.87 ± 1.24. For the same molecule, the “Mean No. Responses ± S.E.M.” value ([2]; 12.5 mg/kg) was 5.87 ± 0.77, the “Mean No. Responses ± S.E.M.” value ([2]; 25.0 mg/kg) was 1.80 ± 1.31 and the “Mean No. Responses ± S.E.M.” value ([2]; 50.0 mg/kg) was 0. For the same molecule, the “analgesia against chemically induced pain” value ([2]; mouse, in vivo) was “provides analgesia”, the “Analgesic Activity” value ([2]; summary) was “Active” and the “% Inhibition (edema)” value ([3]; 6.25 ug/ear) was 28.8%. The “% Inhibition (edema)” value ([3]; 12.5 ug/ear) was 78.3%, the “% Inhibition (edema)” value ([3]; 25 ug/ear) was 89.5% and the “% Inhibition (edema)” value ([3]; 50 ug/ear) was 96.0%. For the same molecule, the ED50 ([3]; 50% inhibition of inflammation, n = 10 mice/dose) was 8.3 ug/ear, the CNS stimulation [4] was “exhibited the CNS stimulation” and the “duration of side effects” value [5, 12] was “last up to one hour”. For the same molecule, the “onset of side effects” value [5, 12] was “within a few minutes of administration”, the side effects ([5]; 12.5 mg/kg to 50 mg/kg subcutaneously, sesame oil) was “central nervous system excitation, brief involuntary muscle contraction of the hind limbs resulting in lateral jumping movements, excessive preening of wound sites, and flushing of the tail and ears” and the side effects ([5]; doses as low as 3 mg/kg) was “slight to moderate central nervous system excitation”. The IC50 [6] was 42 µM, the “inhibition of sperm motility” value [7] was “totally inhibits” and the “dose at which signs of CNS toxicity were evident” value ([8]; single ip dose) was “greater than or equal to 77 mg/kg”. The “Symptoms of CNS toxicity” value ([8]; single ip doses >= 77 mg/kg) was “hypersensitivity to external stimuli and shivering”, the lethality ([8]; single ip doses of up to 150 mg/kg) was “no lethality” and the “Increase to Lifespan” value ([9]; 8.64 mg/kg ip) was -2%. For the same molecule, the “Median Survival Time” value ([9]; 8.64 mg/kg ip) was 20.5 days, the “Weight Change on Day 9” value ([9]; 8.64 mg/kg ip) was “+0.1 gm” and the “Increase to Lifespan” value ([9]; 14.4 mg/kg ip) was 0%. For the same molecule, the “Median Survival Time” value ([9]; 14.4 mg/kg ip) was 21 days, the “Weight Change on Day 9” value ([9]; 14.4 mg/kg ip) was “+0.2 gm” and the “Increase to Lifespan” value ([9]; 24 mg/kg ip) was 0%. For the same molecule, the “Median Survival Time” value ([9]; 24 mg/kg ip) was 21 days, the “Weight Change on Day 9” value ([9]; 24 mg/kg ip) was “+0.6 gm” and the “Increase to Lifespan” value ([9]; 40 mg/kg ip) was -2%. The “Median Survival Time” value ([9]; 40 mg/kg ip) was 20.5 days, the “Weight Change on Day 9” value ([9]; 40 mg/kg ip) was -1.1 gm and the “Increase to Lifespan” value ([9]; 66.7 mg/kg ip) was 2%. The “Median Survival Time” value ([9]; 66.7 mg/kg ip) was 21.5 days, the “Weight Change on Day 9” value ([9]; 66.7 mg/kg ip) was -2.9 gm and the antitumor activity ([9]; M5076 reticulum cell sarcoma) was “did not demonstrate significant antitumor activity”. The “dose that totally inhibits cell division” value [10] was 7 µM, the “return to normal activity” value [11, 13] was ≤ 30 min and the side effects [11, 13] was “mild excitation and writhing in some animals”. For the same molecule, the Mortality ([11]; 100 mg/kg) was 2/10, the Mortality ([11]; 200 mg/kg) was 2/4 and the side effects ([11]; up to 50 mg/kg intraperitoneally) was “no effect”.
